pIC50: −log10 of the molar value.
Target: Protein tyrosine phosphatase type IVA 3 (Homo sapiens, UniProt O75365)
Experiment: In Vitro Biochemical Evaluation: The in vitro biochemical evaluation of all compounds was carried out using recombinant human PTP4A3, overexpressed as a His6-tag fusion protein in E. coli and purified on a metal affinity column. Assays were performed using 6,8-difluoro-4-methylumbelliferyl phosphate (DiFMUP) as an artificial substrate at 25° C. for 30 min in 40 mM Tris-HCl (pH 7.0), 75 mM NaCl, 2 mM EDTA, and 4 mM DTT buffer. […] The fluorescence was measured using a SpectraMax M5 plate reader at 358 nm excitation and 455 nm emission. Fluorescence values were used to calculate the percent inhibition of enzyme activity relative to maximal activity, PTP4A3 in the absence of inhibitor, and maximal inhibition, PTP4A3 in the presence of 2 mM Na3VO4.

Protein tyrosine phosphatase type IVA 3, sequence (O75365 whole entry, the tested form may be a part): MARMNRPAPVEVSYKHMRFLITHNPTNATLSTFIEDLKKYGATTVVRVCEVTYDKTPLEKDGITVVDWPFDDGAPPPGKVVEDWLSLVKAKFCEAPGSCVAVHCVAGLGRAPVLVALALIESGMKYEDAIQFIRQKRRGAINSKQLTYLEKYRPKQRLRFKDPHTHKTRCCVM

Work on `O=c1[nH]c(=O)c2cc(-c3ccccc3)sc2[nH]1` yielded a pIC50 of less than 3.60.
